Reference: US20250304620A1, “ANTIMICROBIAL PEPTIDE AND APPLICATION THEREOF” (priority 2023, published 2025)
Values after ≈ are worked out from the molar mass of the structure shown. Marks after values point to notes of the source that are not given here. Non-standard residues stand in square brackets, D forms with d. Residues, ends and D or L forms follow the SMILES beside them. dPhe(3,4-F2) = N[C@H](Cc1ccc(F)c(F)c1)C(=O)O; d2Nal = N[C@H](Cc1ccc2ccccc2c1)C(=O)O

Assays:
[1] = system: Pseudomonas aeruginosa ATCC 27853; experiment: Injectable formulations on mice infected with peritonitis; type: in vivo, ICR mice; conditions: twice a day for 3 days; for Number of mice that died on each day after infection: day 1 / Number of mice that died on each day after infection: day 2 / Number of mice that died on each day after infection: day 3 / Number of mice that died on each day after infection: day 4 / Number of mice that died on each day after infection: day 5 / Average survival times (Days): n = 10; for Average survival times (Days): observed for 14 d
How it was run: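 Survival readout: deaths and survival time tracked for 14 d. Treatment was tail-vein injection by body weight, twice a day for 3 consecutive days, starting right after intraperitoneal challenge with 0.2 mL of 1×10^9 CFU/mL P. aeruginosa ATCC 27853 in male and female ICR mice.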

[2] = system: Staphylococcus aureus ATCC 25923; type: cell-based
How it was run: (§1)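 CLSI microdilution, serial 2-fold dilutions; MIC read-out; n = 5 parallel repeats.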

[3] = system: Serratia marcescens ATCC 29021; type: cell-based
How it was run: as §1

[4] = system: Escherichia coli ATCC 25922; type: cell-based
How it was run: as §1

[5] = system: Bacillus subtilis ATCC 6633; type: cell-based
How it was run: as §1

Enterococcus ATCC 29212 = type: cell-based
How it was run: as §1

[6] = system: Candida albicans ATCC MYA-2876; type: cell-based
How it was run: as §1

Candida utilis ATCC 9950 = type: cell-based
How it was run: as §1

[7] = system: Klebsiella pneumoniae ATCC 700603; type: cell-based
How it was run: as §1

[8] = system: Salmonella typhimurium ATCC 14028; type: cell-based
How it was run: as §1

[9] = system: Candida tropicalis ATCC 750; type: cell-based
How it was run: as §1

[10] = system: Pseudomonas aeruginosa ATCC 27853; type: cell-based
How it was run: as §1

SMILES: CC(=O)N[C@H](CCCNC(=N)N)C(=O)N[C@H](CCCCN)C(=O)N[C@H](CC(C)C)C(=O)N[C@H](CC(C)C)C(=O)N[C@H](Cc1ccccc1)C(=O)N[C@H](CCCNC(=N)N)C(=O)N[C@H](CC(C)C)C(=O)N[C@H](CCCCN)C(=O)N[C@H](Cc1ccc2ccccc2c1)C(=O)N[C@H](CCCNC(=N)N)C(=O)N[C@H](CCCCN)C(N)=O [LV-3] (Ac-[dR][dK][dL][dL][dF][dR][dL][dK][d2Nal][dR][dK]-NH2)
- Number of mice that died on each day after infection: day 1 ([1]; 1 mg/kg via tail vein): 1 Mouse
- Number of mice that died on each day after infection: day 2 ([1]; 1 mg/kg via tail vein): 1 Mouse
- Number of mice that died on each day after infection: day 3 ([1]; 1 mg/kg via tail vein): 0 Mouse
- Number of mice that died on each day after infection: day 4 ([1]; 1 mg/kg via tail vein): 2 Mouse
- Number of mice that died on each day after infection: day 5 ([1]; 1 mg/kg via tail vein): 1 Mouse
- Average survival times (Days) ([1]; 1 mg/kg via tail vein): 8.6** Days
- MIC Staphylococcus aureus ATCC 25923 [2]: 2 µg/mL (≈ 1.25 µM)
- MIC Serratia marcescens ATCC 29021 [3]: 4 µg/mL (≈ 2.51 µM)
- MIC Escherichia coli ATCC 25922 [4]: 1 µg/mL (≈ 0.627 µM)
- MIC Bacillus subtilis ATCC 6633 [5]: 2 µg/mL (≈ 1.25 µM)
- MIC Enterococcus ATCC 29212 (Enterococcus ATCC 29212): 4 µg/mL (≈ 2.51 µM)
- MIC Candida albicans ATCC MYA-2876 [6]: 8 µg/mL (≈ 5.01 µM)
- MIC Candida utilis ATCC 9950 (Candida utilis ATCC 9950): 8 µg/mL (≈ 5.01 µM)
- MIC Klebsiella pneumoniae ATCC 700603 [7]: 2 µg/mL (≈ 1.25 µM)
- MIC Salmonella typhimurium ATCC 14028 [8]: 1 µg/mL (≈ 0.627 µM)
- MIC Candida tropicalis ATCC 750 [9]: 8 µg/mL (≈ 5.01 µM)
- MIC Pseudomonas aeruginosa ATCC 27853 [10]: 4 µg/mL (≈ 2.51 µM)

SMILES: CC(=O)N[C@H](CCCNC(=N)N)C(=O)N[C@H](CCCCN)C(=O)N[C@H](CC(C)C)C(=O)N[C@H](CC(C)C)C(=O)N[C@H](Cc1ccc(F)c(F)c1)C(=O)N[C@H](CCCCN)C(=O)N[C@H](CC(C)C)C(=O)N[C@H](CCCCN)C(=O)N[C@H](Cc1ccc(F)c(F)c1)C(=O)N[C@H](CCCCN)C(=O)N[C@H](CCCNC(=N)N)C(N)=O [LV-6] (Ac-[dR][dK][dL][dL][dPhe(3,4-F2)][dK][dL][dK][dPhe(3,4-F2)][dK][dR]-NH2)
- Number of mice that died on each day after infection: day 1 ([1]; 0.2 mg/kg via tail vein): 2 Mouse
- Number of mice that died on each day after infection: day 2 ([1]; 0.2 mg/kg via tail vein): 2 Mouse
- Number of mice that died on each day after infection: day 3 ([1]; 0.2 mg/kg via tail vein): 1 Mouse
- Number of mice that died on each day after infection: day 4 ([1]; 0.2 mg/kg via tail vein): 0 Mouse
- Number of mice that died on each day after infection: day 5 ([1]; 0.2 mg/kg via tail vein): 0 Mouse
- Average survival times (Days) ([1]; 0.2 mg/kg via tail vein): 7.9** Days
- Number of mice that died on each day after infection: day 1 ([1]; 1 mg/kg via tail vein): 1 Mouse
- Number of mice that died on each day after infection: day 2 ([1]; 1 mg/kg via tail vein): 1 Mouse
- Number of mice that died on each day after infection: day 3 ([1]; 1 mg/kg via tail vein): 0 Mouse
- Number of mice that died on each day after infection: day 4 ([1]; 1 mg/kg via tail vein): 1 Mouse
- Number of mice that died on each day after infection: day 5 ([1]; 1 mg/kg via tail vein): 0 Mouse
- Average survival times (Days) ([1]; 1 mg/kg via tail vein): 10.5**** Days
- Number of mice that died on each day after infection: day 1 ([1]; 5 mg/kg via tail vein): 1 Mouse
- Number of mice that died on each day after infection: day 2 ([1]; 5 mg/kg via tail vein): 2 Mouse
- Number of mice that died on each day after infection: day 3 ([1]; 5 mg/kg via tail vein): 1 Mouse
- Number of mice that died on each day after infection: day 4 ([1]; 5 mg/kg via tail vein): 0 Mouse
- Number of mice that died on each day after infection: day 5 ([1]; 5 mg/kg via tail vein): 0 Mouse
- Average survival times (Days) ([1]; 5 mg/kg via tail vein): 9.2*** Days
- survival time of mice infected with Pseudomonas aeruginosa ([1]; tail vein, observed 14 d): superior to those of the Levofloxacin group
- MIC Staphylococcus aureus ATCC 25923 [2]: 1 µg/mL (≈ 0.629 µM)
- MIC Serratia marcescens ATCC 29021 [3]: 8 µg/mL (≈ 5.03 µM)
- MIC Escherichia coli ATCC 25922 [4]: 1 µg/mL (≈ 0.629 µM)
- MIC Bacillus subtilis ATCC 6633 [5]: 4 µg/mL (≈ 2.52 µM)
- MIC Enterococcus ATCC 29212 (Enterococcus ATCC 29212): 2 µg/mL (≈ 1.26 µM)
- MIC Candida albicans ATCC MYA-2876 [6]: 16 µg/mL (≈ 10.1 µM)
- MIC Candida utilis ATCC 9950 (Candida utilis ATCC 9950): 8 µg/mL (≈ 5.03 µM)
- MIC Klebsiella pneumoniae ATCC 700603 [7]: 4 µg/mL (≈ 2.52 µM)
- MIC Salmonella typhimurium ATCC 14028 [8]: 2 µg/mL (≈ 1.26 µM)
- MIC Candida tropicalis ATCC 750 [9]: 4 µg/mL (≈ 2.52 µM)
- MIC Pseudomonas aeruginosa ATCC 27853 [10]: 1 µg/mL (≈ 0.629 µM)
